Where two headings read alike, the source gives them in different places.
Assays:
NRAS G12C = NRAS G12C (Homo sapiens, UniProt P01111+P62937, G12C); test: Disruption of BRAF RBD interaction with Ras (FRET / MOA assay); type: biochemical
Outline: (§1)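 Compounds, dosed at 10 points in 3-fold steps from a 30 μM final top concentration, drive Ras–Cyclophilin A ternary complex formation that blocks BRAF RBD binding to GMP-PNP-loaded Ras. IC50 comes from the fall in TR-FRET ratio relative to DMSO controls.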

KRAS G12C = KRAS G12C (Homo sapiens, UniProt P01116+P62937, G12C); test: Disruption of BRAF RBD interaction with K-Ras (FRET / MOA assay); type: biochemical
Sequence of KRAS G12C (P01116 1-188 isoform P01116-2 G12C): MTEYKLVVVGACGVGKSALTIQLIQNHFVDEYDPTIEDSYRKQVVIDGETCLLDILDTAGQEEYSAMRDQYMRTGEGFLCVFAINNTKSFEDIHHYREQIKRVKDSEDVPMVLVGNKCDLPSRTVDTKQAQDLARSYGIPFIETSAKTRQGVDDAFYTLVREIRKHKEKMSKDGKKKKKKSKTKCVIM
Sequence of KRAS G12C (P62937 whole entry): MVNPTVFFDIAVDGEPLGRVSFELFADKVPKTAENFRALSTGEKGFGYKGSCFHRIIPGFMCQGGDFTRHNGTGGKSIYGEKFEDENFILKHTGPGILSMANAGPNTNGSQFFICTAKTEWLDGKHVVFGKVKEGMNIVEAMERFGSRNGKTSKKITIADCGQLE
Description: (§2) Compound is present in plate wells as a 10-point 3-fold dilution series starting at a final concentration of 30 μM. […] Compounds that facilitate disruption of a Ras:RAF complex are identified as those eliciting a decrease in the TR-FRET ratio relative to DMSO control wells.
(§3) Note—The following protocol describes a procedure for monitoring disruption of K-Ras G12C (GMP-PNP) binding to BRAF^RBD by a compound of the invention. This protocol may also be executed substituting other Ras proteins or nucleotides.
(§4) The purpose of this biochemical assay was to measure the ability of test compounds to facilitate ternary complex formation between a nucleotide-loaded K-Ras isoform and Cyclophilin A; the resulting ternary complex disrupts binding to a BRAF^RBD construct, inhibiting K-Ras signaling through a RAF effector. Data is reported as IC50 values.
(§5) Compound was present in plate wells as a 10-point 3-fold dilution series starting at a final concentration of 30 μM. […] Compounds that facilitate disruption of a K-Ras:RAF complex were identified as those eliciting a decrease in the TR-FRET ratio relative to DMSO control wells.

NCI-H358 (K-Ras G12C) = test: CellTiter-Glo Cell Viability Assay; type: cell-based; settings: Homo sapiens, NCI-H358, 120 h; H358, 5-day treatment
Description: (§6) Determination of Cell Viability in RAS Mutant Cancer Cell Lines
(§7) Protocol: CellTiter-Glo® Cell Viability Assay
(§8) Note—The following protocol describes a procedure for monitoring cell viability of K-Ras mutant cancer cell lines in response to a compound of the invention. Other RAS isoforms may be employed, though the number of cells to be seeded will vary based on cell line used.
(§9) Test compounds (132.5 nl) were directly dispensed into the assay plates containing cells. […] On day 5, assay plates and their contents were equilibrated to room temperature for approximately 30 minutes. […] Luminescence was measured using the PerkinElmer Enspire. Data were normalized by the following: (Sample signal/Avg. DMSO)*100. The data were fit using a four-parameter logistic fit.

KRAS G13C = KRAS G13C (Homo sapiens, UniProt P01116+P62937, G13C); test: Disruption of BRAF RBD interaction with K-Ras (FRET / MOA assay); type: biochemical
Sequence of KRAS G13C (P01116 1-188 isoform P01116-2 G13C): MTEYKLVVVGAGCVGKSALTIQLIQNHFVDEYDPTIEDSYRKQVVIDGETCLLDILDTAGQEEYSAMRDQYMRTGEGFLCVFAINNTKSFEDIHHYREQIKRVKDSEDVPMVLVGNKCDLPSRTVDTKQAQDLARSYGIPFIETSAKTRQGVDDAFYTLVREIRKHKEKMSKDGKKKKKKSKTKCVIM
Sequence of KRAS G13C (P62937 whole entry): as the sequence (P62937 whole entry) above
Description: as §2, §3, §4, §5

KRAS G12V = KRAS G12V (Homo sapiens, UniProt P01116+P62937, G12V); test: as above; type: biochemical
Sequence of KRAS G12V (P01116 1-188 isoform P01116-2 G12V): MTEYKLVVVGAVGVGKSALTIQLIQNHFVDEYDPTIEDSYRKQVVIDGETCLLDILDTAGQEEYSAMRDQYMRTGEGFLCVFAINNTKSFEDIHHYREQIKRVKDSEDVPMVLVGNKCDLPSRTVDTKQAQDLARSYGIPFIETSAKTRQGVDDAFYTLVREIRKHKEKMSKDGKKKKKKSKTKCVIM
Sequence of KRAS G12V (P62937 whole entry): as the sequence (P62937 whole entry) above
Description: as §2, §3, §4, §5

NRAS Q61R = NRAS Q61R (Homo sapiens, UniProt P01111+P62937, Q61R); test: Disruption of BRAF RBD interaction with Ras (FRET / MOA assay); type: biochemical; settings: read-out: NRAS Q61R FRET data IC50
Sequence of NRAS Q61R (P01111 whole entry Q61R): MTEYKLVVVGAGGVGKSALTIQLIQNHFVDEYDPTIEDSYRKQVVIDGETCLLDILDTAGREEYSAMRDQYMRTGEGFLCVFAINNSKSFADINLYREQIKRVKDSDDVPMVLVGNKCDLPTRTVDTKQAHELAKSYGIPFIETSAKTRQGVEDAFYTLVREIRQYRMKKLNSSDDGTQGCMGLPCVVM
Sequence of NRAS Q61R (P62937 whole entry): as the sequence (P62937 whole entry) above
Outline: as §1

NRAS Q61K = NRAS Q61K (Homo sapiens, UniProt P01111+P62937, Q61K); test: as above; type: biochemical; settings: read-out: NRAS Q61K FRET data IC50
Sequence of NRAS Q61K (P01111 whole entry Q61K): as the sequence (P01111 whole entry Q61R) above, with R61K counted along it
Sequence of NRAS Q61K (P62937 whole entry): as the sequence (P62937 whole entry) above
Outline: as §1

Capan-1 (K-Ras G12V) [1] = test: CellTiter-Glo Cell Viability Assay; type: cell-based; settings: Homo sapiens, 120 h; Capan-1, 5-day treatment
Description: as §6, §7, §8, §9

SWi573 = settings: cited from earlier work
[2] = system: NCI-H358 cells (K-Ras G12C); test: Potency assay: pERK; type: cell-based; settings: Homo sapiens
Description: The purpose of this assay is to measure the ability of test compounds to inhibit K-Ras in cells. […] This procedure measures a decrease in cellular pERK in response to test compounds. The procedure described below in NCI-H358 cells is applicable to K-Ras G12C.
NCI-H358 cells were grown and maintained using media and procedures recommended by the ATCC. On the day prior to compound addition, cells were plated in 384-well cell culture plates (40 μl/well) and grown overnight in a 37° C., 5% CO2 incubator. Test compounds were prepared in 10, 3-fold dilutions in DMSO, with a high concentration of 10 mM. On day of assay, 40 nl of test compound was added to each well of cell culture plate using an Echo550 liquid handler (LabCyte®). Concentrations of test compound were tested in duplicate. […]
In some experiments, cellular pERK level was determined using the AlphaLISA SureFire Ultra p-ERK1/2 Assay Kit (PerkinElmer). […] Signal was read on an Envision plate reader (PerkinElmer) using standard AlphaLISA settings. […] Signal was plotted vs. the decadal logarithm of compound concentration, and IC50 was determined by fitting a 4-parameter sigmoidal concentration response model.
In other experiments, cellular pERK was determined by In-Cell Western. […] Signal was plotted vs. the decadal logarithm of compound concentration, and IC50 was determined by fitting a 4-parameter sigmoidal concentration response model.

AsPC-1 (K-Ras G12D) = test: Potency assay: pERK; type: cell-based; settings: Homo sapiens, ASPC1
Capan-1 (K-Ras G12V) [3] = test: Potency assay: pERK; type: cell-based; settings: Homo sapiens
KRAS G12D = KRAS G12D (Homo sapiens, UniProt P01116+P62937, G12D); test: Disruption of BRAF RBD interaction with K-Ras (FRET / MOA assay); type: biochemical
Sequence of KRAS G12D (P01116 1-188 isoform P01116-2 G12D): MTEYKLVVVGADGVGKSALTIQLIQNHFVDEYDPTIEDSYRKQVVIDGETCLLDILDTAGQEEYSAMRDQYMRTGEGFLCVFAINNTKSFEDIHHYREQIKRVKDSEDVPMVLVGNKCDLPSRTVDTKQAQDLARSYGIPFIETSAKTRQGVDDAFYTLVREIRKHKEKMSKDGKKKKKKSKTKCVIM
Sequence of KRAS G12D (P62937 whole entry): as the sequence (P62937 whole entry) above
Description: as §2, §3, §4, §5

KRAS G13D = KRAS G13D (Homo sapiens, UniProt P01116+P62937, G13D); test: as above; type: biochemical
Sequence of KRAS G13D (P01116 1-188 isoform P01116-2 G13D): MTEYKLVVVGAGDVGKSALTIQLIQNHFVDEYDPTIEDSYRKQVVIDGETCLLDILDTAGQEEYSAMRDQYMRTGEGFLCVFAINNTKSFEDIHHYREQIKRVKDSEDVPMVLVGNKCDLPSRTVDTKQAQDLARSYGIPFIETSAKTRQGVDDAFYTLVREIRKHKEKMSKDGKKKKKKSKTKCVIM
Sequence of KRAS G13D (P62937 whole entry): as the sequence (P62937 whole entry) above
Description: as §2, §3, §4, §5

[4] = system: Capan-2 KRASG12V/wt xenograft model; test: Tumor growth in Capan-2 CDX model; type: in vivo, BALB/c nude mice; settings: Compound A 100 mg/kg po bid daily, RMC-4550 20 mg/kg po every other day
Description: Capan-2 cells were implanted in 50% Matrigel. Animals were randomized and treatment was initiated at average tumor volume of ˜180 mm3. […] Ns=no significance; ***p<0.001 by one-way ANOVA.
Once tumors reached an average size of ˜180 mm3, mice were randomized to treatment groups to start the administration of test articles or vehicle. […] Body weight and tumor volume (using calipers) was measured twice weekly until study endpoints.

[5] = read-out: KRAS G12C FRET data IC50
[6] = read-out: KRAS G13C FRET data IC50

Sequence of NRAS G12C (P01111 whole entry G12C): as the sequence (P01111 whole entry Q61R) above, with G12C, R61Q counted along it
Sequence of NRAS G12C (P62937 whole entry): as the sequence (P62937 whole entry) above

SMILES: CCn1c(-c2cccnc2[C@H](C)OC)c2c3cc(ccc31)-c1csc(n1)C[C@H](NC(=O)OC(C)(C)C)C(=O)N1CCC[C@H](N1)C(=O)OCC(C)(C)C2
- ring closure, yield of all isomers (from CCn1c(-c2cccnc2[C@H](C)OC)c(CC(C)(C)CO)c2cc(-c3csc(C[C@H](NC(=O)OC(C)(C)C)C(=O)N4CCC[C@@H](C(=O)O)N4)n3)ccc21, ester bond, EDCl/HOBt/DIPEA, DCM, 12.65 mM, 25.0 °C, 16.0 h): 81%

SMILES: CCn1c(-c2cccnc2[C@H](C)OC)c2c3cc(ccc31)-c1csc(n1)C[C@H](NC(=O)OC(C)(C)C)C(=O)N1CC[C@H](C)[C@H](N1)C(=O)OCC(C)(C)C2
- ring closure, yield of all isomers (from CCn1c(-c2cccnc2[C@H](C)OC)c(CC(C)(C)COC(=O)[C@H]2NN(C(=O)[C@H](Cc3nc(Br)cs3)NC(=O)OC(C)(C)C)CC[C@@H]2C)c2cc(B3OC(C)(C)C(C)(C)O3)ccc21, cc_pd bond, Pd(DTBpf)Cl2, K3PO4, dioxane, 17.5 mM, 60.0 °C, 1.0 h): 44.7%

SMILES: CCn1c(-c2cccnc2[C@H](C)OC)c2c3cc(ccc31)-c1csc(n1)[C@@H](OC)[C@H](N(Cc1ccccc1)Cc1ccccc1)C(=O)N1CCC[C@H](N1)C(=O)OCC(C)(C)C2
- ring closure, yield of all isomers (from CCn1c(-c2cccnc2[C@H](C)OC)c(CC(C)(C)COC(=O)[C@@H]2CCCN(C(=O)[C@H]([C@H](OC)c3nc(Br)cs3)N(Cc3ccccc3)Cc3ccccc3)N2)c2cc(B3OC(C)(C)C(C)(C)O3)ccc21, cc_pd bond, Pd(DtBPF)Cl2, dioxane, 40.0 mM, 80.0 °C, 2.0 h): 44.4%

SMILES: CCn1c(-c2cccnc2[C@H](C)OC)c2c3cc(ccc31)-c1cc(O)cc(c1)C[C@H](NC(=O)[C@H](C(C)C)N(C)C(=O)[C@@H]1C[C@@H]1O)C(=O)N1CCC[C@H](N1)C(=O)OCC(C)(C)C2 (atropisomer, axis not shown) [Compound A323]
- IC50 (NRAS G12C): < 0.01 µM
- IC50 (KRAS G12C; [5]): < 0.01 µM

SMILES: CCn1c(-c2cccnc2[C@H](C)OC)c2c3cc(ccc31)-c1cc(O)cc(c1)C[C@H](NC(=O)[C@H](C(C)C)N(C)C(=O)[C@@H]1CN(C(=O)OC)C[C@@H]1C)C(=O)N1CCC[C@H](N1)C(=O)OCC(C)(C)C2 (atropisomer, axis not shown) [Compound A325]
- IC50 (NRAS G12C): < 0.01 µM
- IC50 (NCI-H358 (K-Ras G12C)): < 0.01 µM
- IC50 (KRAS G13C; [6]): < 0.01 µM
- IC50 (KRAS G12V; read-out: KRAS G12V FRET data IC50): < 0.01 µM
- IC50 (KRAS G12C; [5]): < 0.01 µM

SMILES: CCn1c(-c2cccnc2[C@H](C)OC)c2c3cc(ccc31)-c1cc(O)cc(c1)C[C@H](NC(=O)[C@H](C(C)C)N(C)C(=O)[C@H]1CCN(C(=O)C(C)(C)NC)C1)C(=O)N1CCC[C@H](N1)C(=O)OCC(C)(C)C2 (atropisomer, axis not shown) [Compound A381]
- IC50 (KRAS G13C; [6]): < 0.01 µM

SMILES: CCn1c(-c2cc(N3CCN(C)CC3)cnc2[C@H](C)OC)c2c3cc(ccc31)-c1csc(n1)C[C@H](NC(=O)[C@H](C(C)C)N(C)C(=O)[C@@H]1OCC[C@@H]1c1ccncc1)C(=O)N1CCC[C@H](N1)C(=O)OCC(C)(C)C2 (atropisomer, axis not shown) [Compound A450]
- IC50 (NRAS Q61R): 0.01 to 0.1 µM
- IC50 (NRAS Q61K): 0.01 to 0.1 µM
- IC50 (Capan-1 (K-Ras G12V) [1]): < 0.01 µM
- IC50 (NCI-H358 (K-Ras G12C)): < 0.01 µM

SMILES: CCn1c(-c2cc(N3CCN(C)CC3)cnc2[C@H](C)OC)c2c3cc(ccc31)-c1csc(n1)C[C@H](NC(=O)[C@H](C(C)C)N(C)C(=O)N1CC(C3COC3)C1)C(=O)N1CCC[C@H](N1)C(=O)OCC(C)(C)C2 (atropisomer, axis not shown) [Compound A465]
- IC50 (NRAS Q61R): 0.01 to 0.1 µM
- IC50 (NRAS Q61K): 0.01 to 0.1 µM
- IC50 (Capan-1 (K-Ras G12V) [1]): < 0.01 µM
- IC50 (NCI-H358 (K-Ras G12C)): < 0.01 µM

SMILES: CCn1c(-c2cc(N3CCN(C)CC3)cnc2[C@H](C)OC)c2c3cc(ccc31)-c1csc(n1)C[C@H](NC(=O)[C@H](C1CCCC1)N(C)C(=O)[C@@H]1OCC[C@@H]1c1ccccc1)C(=O)N1CCC[C@H](N1)C(=O)OCC(C)(C)C2 (atropisomer, axis not shown) [Compound A593]
- IC50 (NRAS Q61R): 0.01 to 0.1 µM
- IC50 (Capan-1 (K-Ras G12V) [1]): < 0.01 µM
- IC50 (NCI-H358 (K-Ras G12C)): < 0.01 µM

SMILES: C=CC(=O)N1CCN(c2nc(=O)n(-c3c(C)ccnc3C(C)C)c3nc(-c4c(O)cccc4F)c(F)cc23)[C@@H](C)C1 [AMG510]
- sensitivity of SWi573 to inhibitor (SWi573): insensitive

SMILES: CCn1c(-c2cnccc2COC)c2c3cc(ccc31)-c1cc(O)cc(c1)C[C@H](NC(=O)[C@H](C(C)C)N(C)C(=O)OC1CN(C)C1)C(=O)N1CCC[C@H](N1)C(=O)OCC(C)(C)C2 [Compound A74]
- EC50 [2]: 0.334 µM
- EC50 (AsPC-1 (K-Ras G12D)): 0.468 µM
- EC50 (Capan-1 (K-Ras G12V) [3]): 0.413 µM
- IC50 (KRAS G13C; read-out: FRET G13C IC50): 0.091 µM
- IC50 (KRAS G12D): 0.228 µM
- IC50 (KRAS G12V; read-out: FRET G12V IC50): 3.67 µM
- IC50 (KRAS G12C; read-out: FRET G12C IC50): 0.45 µM
- IC50 (KRAS G13D): 0.212 µM

SMILES: Cc1nc(N2CCC3(CC2)CO[C@@H](C)[C@H]3N)c(CO)nc1-c1cccc(Cl)c1Cl [RMC-4550]
- TGI [4]: 39%

Source: patent US20230374035A1, “RAS INHIBITORS” (Revolution Medicines, Inc., priority 2019, published 2023)
